In patent US6525001B1, “Substituted pyrimidine and pyridine herbicides” (Mid-American Commercialization Corporation, priority 1997, dated 2003):

What was measured:
Assay in all cases: Test D
Format in all cases: in vivo
[1] = tested on: ivyleaf speedwell (Veronica hederaefolia); design: key: 0 is no effect; 100 is complete control; details: PREEMERGENCE
[2] = tested on: blackgrass (Alopecurus myosuroides); details: PREEMERGENCE
[3] = tested on: common poppy (Papaver rhoeas); design: key: 0 is no effect; 100 is complete control; details: PREEMERGENCE
[4] = tested on: green foxtail (Setaria viridis); design: key: 0 is no effect; 100 is complete control; details: PREEMERGENCE
[5] = tested on: lambsquarters (Chenopodium album); design: key: 0 is no effect; 100 is complete control; details: PREEMERGENCE
[6] = tested on: scentless chamomile (Matricaria inodora); details: PREEMERGENCE
[7] = tested on: wild buckwheat (Polygonum convolvulus); details: PREEMERGENCE
[8] = tested on: wild oat (Avena fatua); details: PREEMERGENCE
[9] = tested on: blackgrass (Alopecurus myosuroides); details: POSTEMERGENCE
Protocol: (§1) Compounds evaluated in this test were formulated in a non-phytotoxic solvent mixture which included a surfactant and applied to plants that were in the 1- to 4-leaf stage (postemergence application). A mixture of sandy loam soil and greenhouse potting mix in a 60:40 ratio was used for the postemergence test.
(§2) Plantings of these crops and weed species were adjusted to produce plants of appropriate size for the postemergence test. All plant species were grown using normal greenhouse practices. Crop and weed species include alfalfa (Medicago sativa), annual bluegrass (Poa annua), blackgrass (Alopecurus myosuroides), black nightshade (Solanum nigra), chickweed (Stellaria media), common poppy (Papaver rhoeas), deadnettle (Lamium amplexicaule), downy brome (Bromus tectorum), field violet (Viola arvensis), galium 2 (Galium aparine), green foxtail (Setaria viridis), Italian ryegrass (Lolium multiflorum), jointed goatgrass (Aegilops cylindrica), kochia (Kochia scoparia), lambsquarters (Chenopodium album), lentil (Lens culinaris), littleseed canarygrass (Phalaris minor), pea (Pisum sativum), potato (Solanum tuberosum), rape (Brassica napus), redroot pigweed (Amaranthus retroflexus), Russian thistle (Salsola kali), scentless chamomile (Matricaria inodora), sorghum (Sorghum vulgare), spring barley (Hordeum vulgare), sugar beet (Beta vulgaris), sunflower (Helianthus annuus), ivyleaf speedwell (Veronica hederaefolia), spring wheat (Triticum aestivum), winter wheat (Triticum aestivum), wild buckwheat (Polygonum convolvulus), wild mustard (Sinapis arvensis), wild oat (Avena fatua), windgrass (Apera spica-venti) and winter barley (Hordeum vulgare).
(§3) Treated plants and untreated controls were maintained in a greenhouse for approximately 21 to 28 days, after which all treated plants were compared to untreated controls and visually evaluated. Plant response ratings, summarized in Table D, are based upon a 0 to 100 scale where 0 is no effect and 100 is complete control. A dash response (−) means no test result.

[10] = tested on: downy brome (Bromus tectorum); details: POSTEMERGENCE
Protocol: as §1, §2, §3

[11] = tested on: jointed goatgrass (Aegilops cylindrica); details: POSTEMERGENCE
Protocol: as §1, §2, §3

[12] = tested on: littleseed canarygrass (Phalaris minor); details: POSTEMERGENCE
Protocol: as §1, §2, §3

[13] = tested on: windgrass (Apera spica-venti); details: POSTEMERGENCE
Protocol: as §1, §2, §3

[14] = tested on: winter barley (Hordeum vulgare); details: POSTEMERGENCE
Protocol: as §1, §2, §3

[15] = tested on: black nightshade (Solanum nigra); design: key: 0 is no effect; 100 is complete control; details: POSTEMERGENCE
Protocol: as §1, §2, §3

[16] = tested on: chickweed (Stellaria media); design: key: 0 is no effect; 100 is complete control; details: POSTEMERGENCE
Protocol: as §1, §2, §3

[17] = tested on: common poppy (Papaver rhoeas); design: key: 0 is no effect; 100 is complete control; details: POSTEMERGENCE
Protocol: as §1, §2, §3

[18] = tested on: deadnettle (Lamium amplexicaule); design: key: 0 is no effect; 100 is complete control; details: POSTEMERGENCE
Protocol: as §1, §2, §3

[19] = tested on: rape (Brassica napus); design: key: 0 is no effect; 100 is complete control; details: POSTEMERGENCE
Protocol: as §1, §2, §3

[20] = tested on: sugar beet (Beta vulgaris); design: key: 0 is no effect; 100 is complete control; details: POSTEMERGENCE
Protocol: as §1, §2, §3

[21] = tested on: wild mustard (Sinapis arvensis); design: key: 0 is no effect; 100 is complete control; details: POSTEMERGENCE
Protocol: as §1, §2, §3

CCc1cnc(-n2ccc(C(F)(F)F)n2)nc1Cc1cccc(C(F)(F)F)c1 [Compound 46]
Plant response rating, Ivyleaf speedwe ([1]; Rate 31 g/ha): 100 | Plant response rating, Ivyleaf speedwe ([1]; Rate 62 g/ha): 100 | Plant response rating, Blackgrass ([2]; Rate 31 g/ha): 10 | Plant response rating, Blackgrass ([2]; Rate 62 g/ha): 60 | Plant response rating, Common poppy ([3]; Rate 31 g/ha): 100 | Plant response rating, Common poppy ([3]; Rate 62 g/ha): 100 | Plant response rating, Green foxtail ([4]; Rate 31 g/ha): 80 | Plant response rating, Green foxtail ([4]; Rate 62 g/ha): 100 | Plant response rating, Lambsquarters ([5]; Rate 31 g/ha): 65 | Plant response rating, Lambsquarters ([5]; Rate 62 g/ha): 70 | Plant response rating, Scentless chamo ([6]; Rate 31 g/ha): 65 | Plant response rating, Scentless chamo ([6]; Rate 62 g/ha): 70 | Plant response rating, Wild buckwheat ([7]; Rate 31 g/ha): 40 | Plant response rating, Wild buckwheat ([7]; Rate 62 g/ha): 40 | Plant response rating, Wild oat ([8]; Rate 31 g/ha): 50 | Plant response rating, Wild oat ([8]; Rate 62 g/ha): 70

Cc1cnc(-n2cnc(C(F)(F)F)n2)nc1Cn1ccc(C(F)(F)F)n1 [Compound 51]
Plant response rating, Ivyleaf speedwe ([1]; Rate 31 g/ha): 100 | Plant response rating, Ivyleaf speedwe ([1]; Rate 62 g/ha): 100 | Plant response rating, Blackgrass ([2]; Rate 31 g/ha): 60 | Plant response rating, Blackgrass ([2]; Rate 62 g/ha): 80 | Plant response rating, Common poppy ([3]; Rate 31 g/ha): 100 | Plant response rating, Common poppy ([3]; Rate 62 g/ha): 100 | Plant response rating, Green foxtail ([4]; Rate 31 g/ha): 100 | Plant response rating, Green foxtail ([4]; Rate 62 g/ha): 100 | Plant response rating, Lambsquarters ([5]; Rate 31 g/ha): 70 | Plant response rating, Lambsquarters ([5]; Rate 62 g/ha): 70 | Plant response rating, Scentless chamo ([6]; Rate 31 g/ha): 65 | Plant response rating, Scentless chamo ([6]; Rate 62 g/ha): 70 | Plant response rating, Wild buckwheat ([7]; Rate 31 g/ha): 90 | Plant response rating, Wild buckwheat ([7]; Rate 62 g/ha): 90 | Plant response rating, Wild oat ([8]; Rate 31 g/ha): 80 | Plant response rating, Wild oat ([8]; Rate 62 g/ha): 95

Cc1cnc(-n2ccc(C(F)(F)F)n2)nc1Cn1ccc(C(F)(F)F)n1 [Compound 52]
Plant response rating, Blackgrass ([9]; Rate 16 g/ha): 10 | Plant response rating, Blackgrass ([9]; Rate 31 g/ha): 10 | Plant response rating, Blackgrass ([9]; Rate 62 g/ha): 10 | Plant response rating, Blackgrass ([9]; Rate 125 g/ha): 10 | Plant response rating, Downy brome ([10]; Rate 16 g/ha): 10 | Plant response rating, Downy brome ([10]; Rate 31 g/ha): 20 | Plant response rating, Downy brome ([10]; Rate 62 g/ha): 20 | Plant response rating, Downy brome ([10]; Rate 125 g/ha): 20 | Plant response rating, Jointed goatgra ([11]; Rate 16 g/ha): 10 | Plant response rating, Jointed goatgra ([11]; Rate 31 g/ha): 10 | Plant response rating, Jointed goatgra ([11]; Rate 62 g/ha): 10 | Plant response rating, Jointed goatgra ([11]; Rate 125 g/ha): 10 | Plant response rating, LS canarygrass ([12]; Rate 16 g/ha): 10 | Plant response rating, LS canarygrass ([12]; Rate 31 g/ha): 10 | Plant response rating, LS canarygrass ([12]; Rate 62 g/ha): 10 | Plant response rating, LS canarygrass ([12]; Rate 125 g/ha): 20 | Plant response rating, Windgrass ([13]; Rate 16 g/ha): 10 | Plant response rating, Windgrass ([13]; Rate 31 g/ha): 10 | Plant response rating, Windgrass ([13]; Rate 62 g/ha): 20 | Plant response rating, Windgrass ([13]; Rate 125 g/ha): 50 | Plant response rating, Barley (winter) ([14]; Rate 16 g/ha): 10 | Plant response rating, Barley (winter) ([14]; Rate 31 g/ha): 10 | Plant response rating, Barley (winter) ([14]; Rate 62 g/ha): 10 | Plant response rating, Barley (winter) ([14]; Rate 125 g/ha): 10 | Plant response rating, Blk nightshade ([15]; Rate 16 g/ha): 55 | Plant response rating, Blk nightshade ([15]; Rate 31 g/ha): 60 | Plant response rating, Blk nightshade ([15]; Rate 62 g/ha): 65 | Plant response rating, Blk nightshade ([15]; Rate 125 g/ha): 65 | Plant response rating, Chickweed ([16]; Rate 16 g/ha): 30 | Plant response rating, Chickweed ([16]; Rate 31 g/ha): 50 | Plant response rating, Chickweed ([16]; Rate 62 g/ha): 70 | Plant response rating, Chickweed ([16]; Rate 125 g/ha): 80 | Plant response rating, Common poppy ([17]; Rate 16 g/ha): 60 | Plant response rating, Common poppy ([17]; Rate 31 g/ha): 100 | Plant response rating, Common poppy ([17]; Rate 62 g/ha): 100 | Plant response rating, Common poppy ([17]; Rate 125 g/ha): 100 | Plant response rating, Deadnettle ([18]; Rate 16 g/ha): 45 | Plant response rating, Deadnettle ([18]; Rate 31 g/ha): 100 | Plant response rating, Deadnettle ([18]; Rate 62 g/ha): 100 | Plant response rating, Deadnettle ([18]; Rate 125 g/ha): 98 | Plant response rating, Rape ([19]; Rate 16 g/ha): 65 | Plant response rating, Rape ([19]; Rate 31 g/ha): 65 | Plant response rating, Rape ([19]; Rate 62 g/ha): 98 | Plant response rating, Rape ([19]; Rate 125 g/ha): 85 | Plant response rating, Sugar beet ([20]; Rate 16 g/ha): 100 | Plant response rating, Sugar beet ([20]; Rate 31 g/ha): 100 | Plant response rating, Sugar beet ([20]; Rate 62 g/ha): 100 | Plant response rating, Sugar beet ([20]; Rate 125 g/ha): 100 | Plant response rating, Wild mustard ([21]; Rate 16 g/ha): 60 | Plant response rating, Wild mustard ([21]; Rate 31 g/ha): 70 | Plant response rating, Wild mustard ([21]; Rate 62 g/ha): 98 | Plant response rating, Wild mustard ([21]; Rate 125 g/ha): 100 | Plant response rating, Blackgrass ([2]; Rate 31 g/ha): 50 | Plant response rating, Blackgrass ([2]; Rate 62 g/ha): 80 | Plant response rating, Blackgrass ([2]; Rate 125 g/ha): 90 | Plant response rating, Green foxtail ([4]; Rate 31 g/ha): 50 | Plant response rating, Green foxtail ([4]; Rate 62 g/ha): 80 | Plant response rating, Green foxtail ([4]; Rate 125 g/ha): 100 | Plant response rating, Lambsquarters ([5]; Rate 31 g/ha): 90 | Plant response rating, Lambsquarters ([5]; Rate 62 g/ha): 90 | Plant response rating, Lambsquarters ([5]; Rate 125 g/ha): 100 | Plant response rating, Wild buckwheat ([7]; Rate 31 g/ha): 40 | Plant response rating, Wild buckwheat ([7]; Rate 62 g/ha): 60 | Plant response rating, Wild oat ([8]; Rate 31 g/ha): 40 | Plant response rating, Wild oat ([8]; Rate 62 g/ha): 50 | Plant response rating, Wild oat ([8]; Rate 125 g/ha): 60
